These results are taken from article PMC7127169 (Bioorganic & Medicinal Chemistry, 2012).

For test [1], the target named is SARS-CoV PL^pro deubiquitination (DUB) activity (Severe acute respiratory syndrome coronavirus, UniProt P0C6U8). The test can be described thus: biochemical.
Test [2] concerns the target T1, SARS-CoV PL^pro (Severe acute respiratory syndrome coronavirus, UniProt P0C6U8). Type of test: biochemical.
A further test addresses Chymotrypsin (Bos taurus, UniProt P00766). The test can be described thus: biochemical.
Another test concerns the target T2, Papain (Carica papaya, UniProt P00784).
T2 sequence (P00784 134-345): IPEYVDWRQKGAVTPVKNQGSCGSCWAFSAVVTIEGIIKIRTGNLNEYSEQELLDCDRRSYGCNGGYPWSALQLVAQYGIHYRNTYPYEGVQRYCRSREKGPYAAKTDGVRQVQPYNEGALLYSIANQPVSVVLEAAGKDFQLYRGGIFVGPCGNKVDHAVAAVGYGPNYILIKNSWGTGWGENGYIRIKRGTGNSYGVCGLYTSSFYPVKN
As to the kind of experiment: biochemical.

The next test deals with HIV-1 protease (Human immunodeficiency virus type 1 group M subtype B, UniProt P04585). The test can be described thus: biochemical.
For test [3], the target named is T1, SARS-CoV PL^pro. In kind it is biochemical. This is another data set of the same source.
The target in the next test is SARS-CoV 3CL^pro (Severe acute respiratory syndrome coronavirus, UniProt P0C6U8). In kind it is biochemical. Conditions: at 200 μM.

pIC50: −log10 of the molar value. Entries after “also recorded” stand apart in the source; their conditions may differ.

Usually pIC50 stands for the negative decadic logarithm of the IC50, by convention in mol/L. `Cc1coc2c1C(=O)C(=O)c1c-2ccc2c1CCCC2(C)C` [Compound 1, Tanshinone IIA] showed a pIC50 in test [1] of less than 3.70. On SARS-CoV PL^pro [2], the k5 turned out to be 0.04825 ± 0.006 min⁻¹ and the k6 was determined as 0.008485 ± 0.0001 min⁻¹.
For `Cc1coc2c1C(=O)C(=O)c1c-2ccc2c1CCCC2(C)CO` (stereo not shown) [Compound 2, Tanshinone IIB], the pIC50 at Chymotrypsin, against Papain and against HIV-1 protease was less than 3.70 throughout. This compound also came in with a k5 on SARS-CoV PL^pro [2] of 0.02503 ± 0.003 min⁻¹. This compound also had a k6 on SARS-CoV PL^pro [2] of 0.004704 ± 0.0002 min⁻¹.
`COC(=O)[C@@]1(C)CCCc2c1ccc1c2C(=O)C(=O)c2c(C)coc2-1` [Compound 3, Methyl tanshinonate]: the pIC50 in test [1] was less than 3.70. Also, the pIC50 against Papain was less than 3.70. At SARS-CoV PL^pro [2], this compound registered a k5 of 0.0193 ± 0.001 min⁻¹ and a k6 of 0.002657 ± 0.0002 min⁻¹.
For the compound `C[C@H]1COC2=C1C(=O)C(=O)c1c2ccc2c1CCCC2(C)C` [Compound 4, Cryptotanshinone], on SARS-CoV PL^pro [3], the “type of inhibition toward PL^pro” value is “Noncompetitive inhibition”. Further, at SARS-CoV PL^pro [2], the k5 is 0.08127 ± 0.001 min⁻¹, the k6 amounted to 0.001406 ± 0.0001 min⁻¹ and the “slow-binding inhibition mechanism on PL^pro” value was “slow-binding inhibition kinetics”.
As to `Cc1coc2c1C(=O)C(=O)c1c-2ccc2c(C)cccc12` [Compound 5, Tanshinone I], the pIC50 on Papain is less than 3.70. Also, at SARS-CoV PL^pro [2], the k5 stood at 0.03015 ± 0.003 min⁻¹ and the k6 was 0.003349 ± 0.0003 min⁻¹.
Regarding `Cc1cccc2c3c(ccc12)C1=C(C(=O)C3=O)[C@@H](C)CO1` [Compound 6, Dihydrotanshinone I], the pIC50 against Chymotrypsin and against Papain was less than 3.70 each time. This compound also returned a k5 on SARS-CoV PL^pro [2] of 0.03203 ± 0.001 min⁻¹. The compound further registered a k6 at SARS-CoV PL^pro [2] of 0.003175 ± 0.0003 min⁻¹.
Regarding `CC(C)C1=Cc2ccc3c(c2C(=O)C1=O)CCCC3(C)C` [Compound 7, Rosmariquinone], the “type of inhibition toward PL^pro” value on SARS-CoV PL^pro [3] was “mixed type inhibition”. Besides, on SARS-CoV PL^pro [2], the k3 is 5 ± 0.83 M⁻¹ s⁻¹, the k4 was determined as 0.006483 ± 0.0004 min⁻¹ and the “slow-binding inhibition mechanism on PL^pro” value is “simple reversible slow-binding inhibition; also recorded: simple slow-binding mode; also recorded: simple reversible slow-binding inhibitor”.
For Salvianolic acid B, the “inhibition of 3CL^pro” value on SARS-CoV 3CL^pro is listed as 30%.
